Assay results published in the supplement of paper PMC3974653.
Counter-ions that a name gives are not always drawn.

Test system: MTT (mouse pheochromocytoma)
Assay: IC50 of cell viability (ATP content)
Details: (24 or 48 h)
In short: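 CellTiter-Glo ATP luminescence, read after 15 minutes, was used to assess MTT mouse pheochromocytoma cells treated for 24 or 48 hrs with library compounds (final 0.5 nM to 46 µM, 8 concentrations). The cells had been plated at 5 µl of 200,000 cells/ml per well in white 1536-well plates in DMEM with 5% FBS and 1% horse serum and cultured overnight at 37°C, 5% CO2. Normalisation set positive-control wells to 100% and DMSO wells to 0%. The IC50 was then determined by four-parameter logistic fitting.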

| Compound | IC50 of cell viability [µM] |
| --- | --- |
| Cc1ccc(-c2nc3ccc(C)cn3c2CC(=O)N(C)C)cc1 [ZOLPIDEM] | > 46 |
| Cc1cc(CC(=O)O)n(C)c1C(=O)c1ccc(Cl)cc1 [ZOMEPIRAC SODIUM] | > 46 |
| COc1cc(N)c(Cl)cc1C(=O)NC1CN2CCC1CC2 (centres undefined) [Zacopride hydrochloride] | > 46 |
| COc1cc(C(=O)NS(=O)(=O)c2ccccc2C)ccc1Cc1cn(C)c2ccc(NC(=O)OC3CCCC3)cc12 [Zafirlukast] | > 46 |
| CCN(C(C)=O)c1cccc(-c2ccnc3c(C#N)cnn23)c1 [Zaleplon] | > 46 |
| C[C@H](C(=O)O)c1ccc2c(c1)CC(=O)c1ccccc1S2 [Zaltoprofen] | > 46 |
| c1ccc(C(OC2CCCN(CCc3ccc4c(c3)OCO4)C2)c2ccccc2)cc1 (centres undefined) [Zamifenacin fumarate] | > 46 |
| CC(=O)NC1[C@H]([C@H](O)[C@H](O)CO)OC(C(=O)O)=C[C@H]1NC(=N)N (some centres undefined) [Zanamivir] | > 46 |
| Oc1cc2cc(CCN3CCN(c4nsc5ccccc45)CC3)c(Cl)cc2[nH]1 [Zaprasidone] | > 46 |
| CCCOC1=C(C=CC=C1)\C2=N\C(=O)C3=C([NH]N=N3)N2 [Zaprinast] | > 46 |
| COC1=C(OC(F)F)C=CC(=C1)C/2=N/NC(=O)/C=C2 [Zardaverine] | > 46 |
| C[C@H]1CCC[C@H](O)CCCCCc2cc(O)cc(O)c2C(=O)O1 [Zearalanol] | > 46 |
| CN(C)C/C=C(/c1ccc(Br)cc1)c1cccnc1.Cl.Cl [Zimelidine dihydrochloride] | > 46 |
| Cl.O.O=C1Cc2cc(CCN3CCN(c4nsc5ccccc45)CC3)c(Cl)cc2N1 [Ziprasidone hydrochloride monohydrate] | > 46 |
| O=P(O)(O)C(O)(Cn1ccnc1)P(=O)(O)O [Zoledronic acid] | > 46 |
| N[S+](=O)([O-])Cc1noc2ccccc12 [Zonisamide] | > 46 |
| CN(C)CCOC1=Cc2ccccc2Sc2ccc(Cl)cc21 [Zotepine] | > 46 |
| OCCN1CCN(CC/C=C2\c3ccccc3Sc3ccc(Cl)cc32)CC1 [Zuclopenthixol hydrochloride] | > 46 |
| N=C(N)NCCCC(NC(=O)C1CCCN1C(=O)C1CSSCC(N)C(=O)NC(Cc2ccc(O)cc2)C(=O)NC(Cc2ccccc2)C(=O)NC(CCC(N)=O)C(=O)NC(CC(N)=O)C(=O)N1)C(=O)NCC(N)=O (centres undefined) [[8-Arginine]vasopressin] | > 46 |
| NCCCCC(NC(=O)C1CCCN1C(=O)C1CSSCC(N)C(=O)NC(Cc2ccc(O)cc2)C(=O)NC(Cc2ccccc2)C(=O)NC(CCC(N)=O)C(=O)NC(CC(N)=O)C(=O)N1)C(=O)NCC(N)=O (centres undefined) [[Lys8]-Vasopressin] | > 46 |
| O=C(O)Cc1ccccc1 [a-Toluic acid] | > 46 |
| OC[C@H]1O[C@@H]2O[C@H]3[C@H](O)[C@@H](O)[C@@H](O[C@H]4[C@H](O)[C@@H](O)[C@@H](O[C@H]5[C@H](O)[C@@H](O)[C@@H](O[C@H]6[C@H](O)[C@@H](O)[C@@H](O[C@H]7[C@H](O)[C@@H](O)[C@@H](O[C@H]1[C@H](O)[C@H]2O)O[C@@H]7CO)O[C@@H]6CO)O[C@@H]5CO)O[C@@H]4CO)O[C@@H]3CO [alpha-Cyclodextrin] | > 46 |
| O=C(O)CCCCC1CCSS1 (stereo not drawn) [alpha-Lipoic acid] | > 46 |
| CC/1=C/CC2CC1C2(C)C (stereo not drawn) [alpha-Pinene] | > 46 |
| C[C@H]1[C@@H]2CC[C@]/3(C)\C=C/C(=O)/C(=C3[C@H]2OC1=O)C [alpha-Santonin] | > 46 |

| Compound | IC50 of cell viability [µM] |
| --- | --- |
| Cc1nnc2n1-c1ccc(Cl)cc1C(c1ccccc1)=NC2 [alprazolam] | > 46 |
| CCOC(=O)OC(C)OC1=C(C(=O)Nc2ccccn2)N(C)S(=O)(=O)c2ccccc21 (centres undefined) [ampiroxicam] | > 46 |
| CCc1oc2ccccc2c1C(=O)c1cc(Br)c(O)c(Br)c1 [benzbromarone] | > 46 |
| O=C(OCc1ccccc1)c1ccc(O)cc1 [benzyl 4-hydroxybenzoate] | > 46 |
| CC1=C(/C=C/C(C)=C/C=C/C(C)=C/C=C/C=C(C)/C=C/C=C(C)/C=C/C2=C(C)CCCC2(C)C)C(C)(C)CCC1 [beta-CAROTENE] | > 46 |
| OC[C@H]1O[C@@H]2O[C@H]3[C@H](O)[C@@H](O)[C@@H](O[C@H]4[C@H](O)[C@@H](O)[C@@H](O[C@H]5[C@H](O)[C@@H](O)[C@@H](O[C@H]6[C@H](O)[C@@H](O)[C@@H](O[C@H]7[C@H](O)[C@@H](O)[C@@H](O[C@H]8[C@H](O)[C@@H](O)[C@@H](O[C@H]1[C@H](O)[C@H]2O)O[C@@H]8CO)O[C@@H]7CO)O[C@@H]6CO)O[C@@H]5CO)O[C@@H]4CO)O[C@@H]3CO [beta-Cyclodextrin] | > 46 |
| O=C1CCO1 [beta-Propiolactone] | > 46 |
| CCC(CCC(C)C1CCC2C3C\C=C/4CC(O)CC[C@@]4(C)C3CC[C@@]12C)C(C)C (stereo partly drawn) [beta-SITOSTEROL] | > 46 |
| CCCCCCCC(=O)O [caprylic acid (octanoic acid)] | > 46 |
| C=C[C@@H]1CN2CC[C@H]1C[C@H]2[C@H](O)c1ccnc2ccccc12 [cinchonine] | > 46 |
| [Cl][Pt][Cl] [cis-Diamineplatinum(II) dichloride] | > 46 |
| [NH2][Pt]([NH2])([Cl])[Cl] [cis-Dichlorodiamine platinum] | > 46 |
| CCC(=O)OCC(=O)[C@@]1(OC(=O)CC)[C@@H](C)C[C@H]2[C@@H]3CCC4=CC(=O)C=C[C@]4(C)[C@@]3(F)[C@@H](O)C[C@@]21C [dexamethasone dipropionate] | > 46 |
| CN(C)CCC(c1ccc(Cl)cc1)c1ccccn1 (centres undefined) [dexchlorpheniramine] | > 46 |
| CCN(CC)CCN1C(=O)CN=C(c2ccccc2F)c2cc(Cl)ccc21 [flurazepam] | > 46 |
| OCC(O)C(O)C(O)C(O)CO (centres undefined) [galactitol] | > 46 |
| CC1(C)[C@@H]2CC[C@]1(C)[C@@H](OC(=O)CSC#N)C2 [isobornyl thiocyanoacetate] | > 46 |
| CCC(C)N1\N=C/N(C1=O)C2=CC=C(C=C2)N3CCN(CC3)C4=CC=C(OCC5COC(C[N]6C=NC=N6)(O5)C7=CC=C(Cl)C=C7Cl)C=C4 (centres undefined) [itraconazole] | > 46 |
| Nc1ccn([C@@H]2CS[C@H](CO)O2)c(=O)n1 [lamivudine] | > 46 |
| CC(C(=O)O)c1ccc(CC2CCCC2=O)cc1 (centres undefined) [loxoprofen] | > 46 |
| Cc1ccc(O)cc1.Cc1cccc(O)c1.Cc1ccccc1O [m-Cresol and o-cresol and p-cresol mixture] | > 46 |
| N=C(N)NCc1cccc(I)c1.N=C(N)NCc1cccc(I)c1.O=[S+]([O-])(O)O [m-Iodobenzylguanidine hemisulfate] | > 46 |
| N=C(N)NCc1cccc(I)c1 [m-Iodobenzylguanidine hemisulfate] | > 46 |
| CC(C)OC(=O)C(\C(=O)OC(C)C)=C1\SC=CS1 [malotilate] | > 46 |
| CN1CCCC[C@@H]1CCN1c2ccccc2Sc2ccc([S+](C)[O-])cc21 (some centres undefined) [mesoridazine] | > 46 |

| Compound | IC50 of cell viability [µM] |
| --- | --- |
| CCCCO [n-Butyl alcohol] | > 46 |
| CCCCCl [n-Butyl chloride] | > 46 |
| CCCCC [n-Pentane] | > 46 |
| CN1C(=O)CN=C(c2ccccc2)c2cc([N+](=O)[O-])ccc21 [nimetazepam] | > 46 |
| O=C1CN=C(c2ccccc2)c2cc([N+](=O)[O-])ccc2N1 [nitrazepam] | > 46 |
| Nc1ccccc1C(=O)O [o-Anthranilic acid] | > 46 |
| COc1ccccc1O [o-methoxyphenol] | > 46 |
| CC12CCC3c4ccc(O)cc4CCC3C1CCC2=O (centres undefined) [oestrone] | > 46 |
| CN1CCN(CC1)C/2=N/C3=CC=CC=C3NC4=C2C=C(C)S4 [olanzapine] | > 46 |
| C[C@@H]1O[C@@H](O[C@H]2C[C@@H](O)[C@@]3(CO)[C@H]4[C@H](O)C[C@]5(C)[C@H](CC[C@]5(O)[C@H]4CC[C@@]3(O)C2)\C6=C\C(=O)OC6)[C@@H](O)[C@H](O)[C@H]1O [ouabain] | > 46 |
| CC(=O)Nc1ccc(C(=O)O)cc1 [p-Acetamidobenzoic acid] | > 46 |
| Nc1ccc(C(=O)O)cc1 [p-Amino benzoic acid] | > 46 |
| Cl.Nc1cc(Cl)c(N=C2NCCN2)c(Cl)c1 [p-Aminoclonidine hydrochloride] | > 46 |
| Nc1ccc(O)cc1 [p-Aminophenol] | > 46 |
| Cc1cc(O)ccc1Cl [p-Chloro-m-cresol] | > 46 |
| Nc1ccc(Cl)cc1 [p-Chloroaniline] | > 46 |
| Oc1ccc(Cl)cc1 [p-Chlorophenol] | > 46 |
| NC(Cc1ccc(Cl)cc1)C(=O)O (centres undefined) [p-Chlorophenylalanine] | > 46 |
| Cc1ccc(O)cc1 [p-Cresol] | > 46 |
| CC(C)(C)c1ccc(O)c(O)c1 [p-tert-Butylcatechol] | > 46 |
| CCC(C)(C)c1ccc(O)cc1 [p-tert-Pentylphenol] | > 46 |
| O=P(O)(O)O [phosphoric acid] | > 46 |
| CC(C)n1nc(-c2cc3cc(O)ccc3[nH]2)c2c(N)ncnc21 [pp242] | > 46 |
| OC(CCN1CCCCC1)(c1ccccc1)c1ccccc1 [pridinol] | > 46 |
